# Reference: patent publication US6001880A, “Alkylenediamine derivative, anti-ulcer drug, and antibacterial drug” (Shiseido Co., Ltd., priority 1997, dated 1999)
# Tested on: stress ulcer formation in rats
# Experiment: WIS: Restraint and Water Immersion Stress-Induced Ulcer Inhibition Test
# Type: in vivo, rat (male Crj:SD or Slc:SD)
# Conditions: 100 mg/kg oral, 10 minutes before 7 h restraint and water immersion (21° C.)
# Protocol: WIS: Restraint and Water Immersion Stress-Induced Ulcer Inhibition Test
# The degree of inhibition of the stress ulcer formation is tested.
# Male Crj:SD or Slc:SD rats (6 to 7-week-old) were fasted overnight, but allowed free access to water. Each group has 5 to 8 of these rats. The sample compound was dissolved or suspended in an aqueous solution of 0.3% sodium carboxymethylcellulose or 0.05% Tween 80 and then was orally administered (100 mg/10 ml/kg). To a control group, the vehicle was administered. 10 minutes later, the rats were placed in a stress cage and immersed to the level of xipfoid process in a water bath (21° C.) for 7 hours. At the end of the stress, the rats were sacrificed by inhalation of ether or carbon dioxide. Then, the stomach of each was removed, inflated by injecting 10 ml of 5% formalin neutral buffer solution, and immersed in 1% formalin neutral buffer solution for 30 minutes or more to be fixed. The stomach was incised along the greater curvature and then the length of each erosion in the glandular portion was determined under dissecting microscope. The sum of the length of erosions per stomach was defined as ulcer index (UI).
# The effect obtained when 100 mg/kg of the sample compound had been administered was expressed as ulcer formation inhibitory rate (%) as follows:
# ulcer formation inhibitory rate (%)=(1-(UI in sample group/UI in control
row,Compound,WIS: ulcer formation inhibitory rate
1,CCN(CC)CCNC(=O)c1cc(OC)c(OC)c(OC/C=C(\C)CCC=C(C)C)c1 [Example 39],87%
2,CCN(CC)CCNC(=O)c1ccc(OC/C=C(\C)CCC=C(C)C)c(OC)c1 [Example 30],84%
3,CC(C)=CCC/C(C)=C/COc1ccc(C(=O)NCCN(C(C)C)C(C)C)cc1 [Example 7],84%
4,CCN(CC)CCNC(=O)c1ccc(OCC=C(C)C)nc1 [Example 46],65%
5,CC(C)=CCOc1ccc(C(=O)NCCN(C(C)C)C(C)C)cn1 [Example 48],75%
6,CCN(CC)CCNC(=O)c1ccc(OC)c(OC/C=C(\C)CCC=C(C)C)c1 [Example 29],81%
7,CC(C)Oc1ccc(C(=O)NCCN(C(C)C)C(C)C)cc1 [Example 59],89%
8,CCN(CC)CCNC(=O)c1ccccc1OC/C=C(\C)CCC=C(C)C [Example 2],82%
9,CC(C)N(CCNC(=O)c1ccc(NC(=O)C(C)(C)C)cc1)C(C)C [Example 69],95%
10,CC(C)c1ccc(C(=O)NCCN(C(C)C)C(C)C)cc1 [Example 64],82%

# Tested on: isolated gastric fundic gland
# Experiment: CAP: Acid Secretion Inhibition Test In Vitro ([14C]-aminopyrine uptake)
# Type: cell-based, rabbit (male Japanese White)
# Conditions: Oryctolagus cuniculus; final concentration 10^-5 M; histamine 10^-5 M stimulation; read-out: CAP: acid secretion inhibitory rate
# Protocol: CAP: Acid Secretion Inhibition Test In Vitro
# The acid secretion inhibitory activity in a cell level is studied. It can also be used for studying the mechanism of the effect.
# First, an isolated gastric fundic gland sample was prepared. Namely, a male Japanese White rabbit (2.5 to 3 kg) was anesthetized to death with Nembutal™ and then the abdomen was incised. Immediately thereafter, the stomach was removed and, after its pyloric and cardiac antrum were severed, incised along its greater curvature into two sheets. The gastric contents adhering to the mucosal surface was washed out with ice-cooled PBS (-) and then carefully washed therein. The gastric wall was spread on a cork board with its mucosal surface facing up and the feed and mucus thereon were completely removed with sterile gauze. The mucosa was separated therefrom by a spatula and then collected in ice-cooled PBS (-). After being washed twice with PBS (-), the mucosa was minced into 2-3 mm^3 pieces by scissors. These pieces were further washed twice with a nutrient solution. The nutrient solution comprises 132.4 mM of NaCl, 5.4 mM of KCl, 5 mM of Na2 HPO4. 12H2 O, 1 mM of NaH2 PO4.2H2 O, 1.2 mM of MgSO4, 1 mM of CaCl2, 25 mM of HEPES, 2 mg/ml of glucose, and 1 mg/ml of BSA.
# Into 70 ml of the nutrient solution containing 1 mg/ml of collagenase, minced mucosal pieces were dispersed and intensely stirred in a conical flask with a stirrer at 37° C. for 40 to 60 minutes. During this period, 100% O2 was sprayed on the nutrient solution surface and the pH was appropriately measured such that it was immediately adjusted to pH 7.4, when the value was therebelow, with a base. The nutrient solution was added to the reaction solution so as to attain the total amount of about 200 ml. After being filtered through a mesh, the suspension was divisionally introduced into 50 ml centrifuge tubes and left for 15 minutes such that gastric fundic gland was deposited. The supernatant was repeatedly removed by an aspirator, dispersed in the nutrient solution, and then left such that the gastric fundic gland was washed three times. At this time, without using a pipette, the suspension was alternately introduced into two centrifuge tubes so as to effect dispersion. The number of cells was counted under microscope and adjusted to 1.6×10^6 cells/ml.
# Then, [^14 C]-aminopyrine uptake test was performed. After an Eppendorf tube was weighed, 10 μl (final concentration: 10^-5 M) of histamine dissolved in the above-mentioned nutrient solution, 10 μl (final concentration: […]) of the test compound dissolved in DMSO, and 10 μl (final concentration: 0.05 μCi/ml) of [^14 C]-aminopyrine diluted with the nutrient solution were introduced therein and then 970 μl of the isolated gastric fundic gland suspension prepared above was added thereto. Subsequently, this mixture was shaken at 37° C. for 40 minutes at 125 cycles/minute. After being centrifuged for 30 seconds, 200 μl of its supernatant was collected into a mini-vial, while the rest was removed by an aspirator. The gland pellet was completely dried as the tube with its lid being opened was kept for one night in a drying oven at 80° C. and then the lid was closed and the weight was determined at room temperature. Then 100 μl of 1N KOH was added thereto and the tube with its lid being closed was treated at 60° C. for 1 to 2 hours so as to dissolve the pellet. Then, the contents thereof were transferred to a mini-vial. Into the mini-vial containing the supernatant or gland pellet, 4 ml of Atomlite™ was added and then the radioactivity was measured by a liquid scintillation counter. Here, after the radioactivity of the gland pellet was corrected by using a sample in which 20 mM of NaSCN was added so as to cancel the hydrogen ion concentration gradient, the integration ratio of aminopyrine specifically trapped by the gland pellet was calculated. This experiment was performed in duplicate.
# Here, its principle will be briefly explained. […]
row,Compound,inhibition at 10 µM
1,CCN(CC)CCNC(=O)c1ccc(OC/C=C(\C)CCC=C(C)C)c(OC)c1 [Example 30],100%
2,CC(C)=CCC/C(C)=C/COc1ccc(C(=O)NCCN(C(C)C)C(C)C)cc1 [Example 7],100%
3,CCN(CC)CCNC(=O)c1ccc(OC)c(OC/C=C(\C)CCC=C(C)C)c1 [Example 29],100%
4,CC(C)Oc1ccc(C(=O)NCCN(C(C)C)C(C)C)cc1 [Example 59],47.5%
5,CCN(CC)CCNC(=O)c1ccccc1OC/C=C(\C)CCC=C(C)C [Example 2],99.9%
6,CC(C)N(CCNC(=O)c1ccc(NC(=O)C(C)(C)C)cc1)C(C)C [Example 69],31.5%
7,CC(C)c1ccc(C(=O)NCCN(C(C)C)C(C)C)cc1 [Example 64],72.7%

# Tested on: Helicobacter pyroli (HP NCTC 11637)
# Experiment: AHP: Antibacterial Activity Test Against Helicobacter pyroli (agar dilution)
# Type: cell-based, Helicobacter pyroli NCTC 11637
# Conditions: MIC 100 μg/ml or more; colony number vs control plate, 250 mM solution of sample compound
# Protocol: AHP: Antibacterial Activity Test Against Helicobacter pyroli The minimum inhibitory concentration (MIC) against Helicobacter pyroli (microacrophilic gram-negative bacterium which is supposed to deeply involve in pathogenesis, relapse, and recrudescence of ulcer, referred to as "HP" in the following) is measured so as to find out compounds which have antibacterial activity against Helicobacter pyroli. MICs were determined by the agar dilution method. The stock culture (-80° C.) of HP NCTC 11637 was thawed and cultured on tripticase soy agar supplemented with 5% sheep blood at 37° C. in an atmosphere of 5% O2, 10% CO2, and 85% N2. Grown colonies were transferred to the same plate and precultured for 3 days under the same condition. […] An appropriate amount of the colony grown on the plate by preculturing was suspended in Mueller Hinton broth till turbidness was recognizable by naked eyes, thereby yielding a bacterial suspension concentrate containing about 10^7 cfu/ml. […] 10 μl of the bacterial suspension for inoculation (about 10^3 cfu) was dropped by dispenser onto an MIC plate for inoculation and cultured for 7 days under the same condition as that of preculture. Thereafter, it was judged whether there had been bacteria growth or not. […] As the result of the comparison of these plates, when the number of the colony on the plate containing the sample compound was less than 90% with respect to that on the control plate, it was represented by "+". Contrary to this, when there was 90% or more, it was represented by "-".
row,Compound,AHP: growth class where MIC was 100 μg/ml or more
1,CC(C)=CCC/C(C)=C/COc1ccc(C(=O)NCCN(C(C)C)C(C)C)cc1 [Example 7],+ (the number of the colony on the plate containing the sample compound was less than 90% with respect to that on the control plate)

# Tested on: not listed separately
# Experiment: MTT: Cell Damaging and Protecting Effect Test
# Type: cell-based, rabbit (male Japanese White)
# Conditions: rabbit, gastric corpus mucosa cells, final concentration 10^-4 M, smaller value is better, read-out: MTT: cell damaging rate
# Text: MTT: Cell Damaging and Protecting Effect Test
# It is confirmed that there is no toxicity in cell level. Those having a toxicity in cell level are inappropriate as an anti-ulcer drug.
# A male Japanese White rabbit (2.5 to 3 kg) was anesthetized to death by Nembutal™ and, immediately thereafter, its stomach was removed. The greater curvature of the stomach was incised so as to remove the stomach contents therefrom. After the mucosal surface was washed with HBSS (Hanks' Balanced Salt Solution), the stomach in ice-cooled HBSS was transferred to a laboratory. Then, after the pyloric antrum was removed, the gastric corpus mucosa was separated by a spatula and then minced into 2 to 3 mm^3 pieces in BME (Basal Medium Eagle). Thereafter, these pieces were shaken at 120 to 130 cycles/minute for 15 minutes at 37° C. in BME 60 ml containing 280 U/ml of dispase and 30 to 50 U/ml of collagenase. Here, the concentration of collagenase was appropriately changed for each lot in view of the state of cells. The pieces were washed twice with EBSS (Earle's Balanced Salt Solution) containing 1 mM of EDTA and then shaken in MEM (Minimum Essential Medium) containing 1 mM of EDTA at 37° C. for 5 minutes. Subsequently, they were shaken in the dispase and collagenase having the same concentrations as those mentioned above for 15 minutes so as to remove the supernatant and then further shaken at 37° C. for 50 to 60 minutes at 120 to 130 cycles/minute. Then, after being washed twice with HBSS, Ham F12 containing 2% of Ultrocer G™ was used to attain the concentration of 1×10^6 cells/ml. Thus formed suspension was dispensed in each well of a 96-well plate by 200 μl. The plate was incubated in the atmosphere composed of 5% CO2 and 95% air at 37° C. for three days so as to attain a confluent state and then subjected to MTT assay.
# The sample compound was dissolved in DMSO so as to attain a concentration of 10^-2 M and then diluted with HBSS containing 2% of Ultrocer G™ so as to attain a final concentration of 10^-4 M. To each group, which 8 wells were used for, 10 μl of MTT reagent was added immediately after 100 μl of the medium in each well was exchanged for same volume of the resulting solution of the sample compound. After being incubated in an atmosphere composed of 5% CO2 and 95% air at 37° C. for 4 hours, thus formed solution was centrifuged and then its supernatant was discarded. Subsequently, 100 μl of 100% ethanol was added to the residue so as to dissolve MTT formazan. Then, the absorbance (OD: 570 to 630) was measured by a microplate reader. This method utilizes a phenomenon in which MTT is changed to MTT formazan only by mitochondria of living cells so as to change color.
# The cell damaging or cell protecting effect of the sample compound at the final concentration of 10^-4 M was expressed as cell damaging rate (%) as follows:
# cell damaging rate (%)=(1-(absorbance in sample group/absorbance in control
# Accordingly, the smaller value is better in the cell damaging rate.
row,Compound,"cytotoxicity at 4 h, 100 µM"
1,CCN(CC)CCNC(=O)c1ccc(OCC=C(C)C)nc1 [Example 46],-3%
2,CC(C)=CCOc1ccc(C(=O)NCCN(C(C)C)C(C)C)cn1 [Example 48],-13%
3,CCN(CC)CCNC(=O)c1ccc(OC)c(OC/C=C(\C)CCC=C(C)C)c1 [Example 29],49%
4,CC(C)Oc1ccc(C(=O)NCCN(C(C)C)C(C)C)cc1 [Example 59],39%
5,CCN(CC)CCNC(=O)c1ccccc1OC/C=C(\C)CCC=C(C)C [Example 2],28%
6,CC(C)N(CCNC(=O)c1ccc(NC(=O)C(C)(C)C)cc1)C(C)C [Example 69],35%
7,CC(C)c1ccc(C(=O)NCCN(C(C)C)C(C)C)cc1 [Example 64],39%

# Tested on: mice
# Experiment: not given
# Parameters: species or system mouse (male Slc:ICR)
# Conditions: mouse, in vivo
# Protocol: AT: Single Dose Toxicity Pretest
# Male Slc:ICR mice (5-week-old) were used. Each group has 3 to 5 mice and each mouse was fasted, but allowed free access to water, for 4 to 5 hours from 9 a.m. in the test day. Then, 2,000 mg/10 ml/kg of the sample compound dissolved or suspended in an aqueous solution of 0.5% sodium carboxymethyl cellulose was orally administered thereto. To a control, only the vehicle was administered. […] The body weight was measured before and after the fasting as well as at the same time everyday. The dead animals were immediately subjected to autopsy and their organs were observed by naked eyes. Also, the living animals were sacrificed with ether or carbon dioxide one week after the administration and then their organs were observed by naked eyes.
# The toxicity at the single dose of 2,000 mg/kg of the sample compound was expressed as being classified into 5 levels.
# 5: mortality rate is 0%; no toxicity is found at all both in behavior and organs.
# 4: Mortality rate is 0%; while no toxicity is found in organs, slight toxicity is observed in behavior or body weight increase.
# 3: While there is a dead animal (though not all the animals are dead), no toxicity is found in organs.
# 2: Regardless of whether there is a dead animal or not, toxicity is found in organs.
# 1: All the animals are dead.
row,Compound,AT: single dose toxicity level
1,CCN(CC)CCNC(=O)c1cc(OC)c(OC)c(OC/C=C(\C)CCC=C(C)C)c1 [Example 39],4
2,CCN(CC)CCNC(=O)c1ccc(OC/C=C(\C)CCC=C(C)C)c(OC)c1 [Example 30],5
3,CC(C)=CCC/C(C)=C/COc1ccc(C(=O)NCCN(C(C)C)C(C)C)cc1 [Example 7],5
4,CCN(CC)CCNC(=O)c1ccc(OCC=C(C)C)nc1 [Example 46],3
5,CC(C)=CCOc1ccc(C(=O)NCCN(C(C)C)C(C)C)cn1 [Example 48],3
